Results from ChEMBL document CHEMBL1201862, “PubChem BioAssay data set” (2004).
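A five-concentration, 48-hour dose response in 96-well plates underlies each endpoint, interpolated linearly between surrounding concentrations. GI50 marks 50% less growth.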 The source made the active and inactive calls. Rule as the data show it: active = GI50 up to about 1.1 µM and inactive = higher.

Tests used:
Test in all cases: NCI anticancer screen, dose series, 48 h
SNB-75 = tested on: SNB-75
HCC 2998 = tested on: HCC 2998
ACHN = tested on: ACHN
RXF 393 = tested on: RXF 393
UACC-257 = tested on: UACC-257
SF-295 = tested on: SF-295
EKVX = tested on: EKVX
HL-60 = tested on: HL-60
HOP-62 = tested on: HOP-62
HCT-116 = tested on: HCT-116
OVCAR-8 = tested on: OVCAR-8
OVCAR-4 = tested on: OVCAR-4
M14 = tested on: M14
Malme-3M = tested on: Malme-3M
SK-MEL-28 = tested on: SK-MEL-28
MOLT-4 = tested on: MOLT-4

Measured: GI50

CCCCN(CCCC)/C(=N\C#N)NCc1ccccc1
inactive: SNB-75 28.1 µM | HCC 2998 15.5 µM | ACHN 26.2 µM | RXF 393 22.5 µM | UACC-257 27.4 µM | SF-295 14.3 µM | EKVX 19.6 µM | HL-60 10.5 µM | HOP-62 28.4 µM | HCT-116 27.1 µM | OVCAR-8 26.1 µM | OVCAR-4 28.6 µM | M14 22.3 µM | Malme-3M 32.4 µM

CC(=O)Nc1ccc(C(=O)NN2C(=O)C(Cl)C2c2ccc(O)cc2)cc1 (configuration not stated)
inactive: SK-MEL-28 > 100 µM | SNB-75 > 100 µM | ACHN > 100 µM | RXF 393 61.7 µM | UACC-257 > 100 µM | SF-295 > 100 µM | EKVX > 100 µM | HL-60 > 100 µM | HOP-62 57.9 µM | HCT-116 > 100 µM | OVCAR-8 77.3 µM | OVCAR-4 > 100 µM | MOLT-4 > 100 µM | M14 > 100 µM | Malme-3M > 100 µM

CCOC(=O)CNC1C(NC(C)=O)C(OC)OC2COC(c3ccccc3)OC21 (configuration not stated)
inactive: SK-MEL-28 > 100 µM | SNB-75 > 100 µM | HCC 2998 > 100 µM | ACHN > 100 µM | RXF 393 > 100 µM | UACC-257 > 100 µM | SF-295 > 100 µM | EKVX > 100 µM | HL-60 > 100 µM | HCT-116 > 100 µM | OVCAR-8 > 100 µM | OVCAR-4 > 100 µM | MOLT-4 > 10 µM | M14 > 100 µM | Malme-3M > 100 µM

O=C(O)CCc1coc2ccc(O)cc12
inactive: SK-MEL-28 > 100 µM | SNB-75 > 100 µM | HCC 2998 > 100 µM | ACHN > 100 µM | RXF 393 > 100 µM | UACC-257 > 100 µM | SF-295 > 100 µM | EKVX > 100 µM | HL-60 > 100 µM | HOP-62 > 100 µM | HCT-116 > 100 µM | OVCAR-8 > 100 µM | OVCAR-4 > 100 µM | MOLT-4 > 100 µM | M14 > 100 µM

c1ccc(COC2(OCc3ccccc3)CC3OC2C2NN=NC32)cc1 (configuration not stated)
inactive: SK-MEL-28 18.8 µM | SNB-75 16.9 µM | HCC 2998 > 10 µM | ACHN > 100 µM | RXF 393 41.7 µM | UACC-257 18.5 µM | SF-295 23.1 µM | HL-60 11.1 µM | HOP-62 41.9 µM | OVCAR-4 17.9 µM | MOLT-4 12.5 µM | M14 18.5 µM | Malme-3M 22.4 µM

CCOC(=O)/C(C#N)=C/c1[nH]c(C(=O)OCc2ccccc2)c(C)c1C
inactive: SK-MEL-28 > 100 µM | SNB-75 > 100 µM | HCC 2998 > 100 µM | ACHN > 100 µM | RXF 393 > 100 µM | UACC-257 > 100 µM | SF-295 > 100 µM | EKVX > 100 µM | HL-60 > 100 µM | HOP-62 > 100 µM | OVCAR-8 > 100 µM | OVCAR-4 > 100 µM | MOLT-4 > 100 µM | M14 > 100 µM | Malme-3M > 100 µM

COc1ccc2nc(NC(=O)C(=O)C(C(=O)c3ccccc3-c3ccccc3)C3OC(=O)c4ccccc43)sc2c1 (configuration not stated)
inactive: SK-MEL-28 20.5 µM | SNB-75 16.1 µM | HCC 2998 15.4 µM | ACHN 26 µM | RXF 393 10.2 µM | UACC-257 22.4 µM | SF-295 27.2 µM | EKVX 21.7 µM | HL-60 16 µM | HOP-62 16.2 µM | HCT-116 14.5 µM | OVCAR-8 20.1 µM | MOLT-4 19.5 µM | M14 19 µM | Malme-3M 12.1 µM
